The text below walks through data of patent US11299458B2, “Crystalline compounds” (OTSUKA AMERICA PHARMACEUTICAL, INC., priority 2015, dated 2022).

Values joined by “and” are separate entries in the source; they are usually repeats but may differ in a detail not shown here. Equal values may be shown once.

The target in series [1] is serotonin reuptake (5-HT) (Homo sapiens, UniProt P31645). Particulars: unbalanced triple reuptake inhibitor; cited from earlier work.
The target in series [2] is norepinephrine reuptake (NE) (Homo sapiens, UniProt P23975). Particulars: unbalanced triple reuptake inhibitor; cited from earlier work.
Another series concerns the target dopamine reuptake (DA) (Homo sapiens, UniProt Q01959). Particulars: unbalanced triple reuptake inhibitor; cited from earlier work.
The nature of series [3]: Accelerated stress conditions (relative humidity stress), solid form by XRPD. Particulars: two weeks. Format: physicochemical. The protocol:
Relative Humidity Stress: Solids are stored at approximately 40° C./75% RH condition for a measured time period by placing the solids into a vial inside a sealed temperature/humidity chamber at the controlled condition. Samples are analyzed after removal from the stress environment.
Crystalline Forms A, B, and C are exposed to accelerated stress conditions for two weeks (Table 18 below). […] Crystalline Form C is metastable at this condition.
Experimental: Relative Humidity Stress
The following relative humidity jars (saturated salt solutions are used to generate desired relative humidity) are utilized: 75% RH (NaCl) and 56% RH (NaBr) (Nyqvist, H., Int. J. Pharm. Tech. &Prod. Mfr. 1983, 4 (2), 47-48).

The nature of series [4]: Storage stability of solid form, XRPD after storage. Format: physicochemical. Particulars: 22 days of ambient storage. The protocol: Six scale-up attempts are conducted to prepare Crystalline Form C by cooling in isopropanol on approximately 50-150 mg scale (Table 11) and the solids tested by XRPD. At refrigerator temperature, precipitated solids yield Form B. Seeding with Form C after cooling in the refrigerator (no solids observed) and before placing in the freezer yield XRPD pattern of Form C with B peaks. Precipitation at freezer temperature results in solids with an XRPD pattern of Form C with A peaks. A solution placed in the freezer after cooling to room temperature with a lower concentration (7 mg/mL compared to 10 mg/mL) yields Form B. By crash cooling (ambient solution placed into dry ice/isopropanol), solids generated are a mixture of Forms B and A. The last attempt on an approximate 50-mg scale generates a mixture of Forms A and C.
An elliptically graded multilayer mirror is used to focus Cu Kα X-rays through the specimen and onto the detector. Prior to the analysis, a silicon specimen (NIST SRM 640e) is analyzed to verify the observed position of the Si 111 peak is consistent with the NIST-certified position. A specimen of the sample is sandwiched between 3-μm-thick films and analyzed in transmission geometry. A beam-stop, short antiscatter extension, and antiscatter knife edge are used to minimize the background generated by air. Soller slits for the incident and diffracted beams are used to minimize broadening from axial divergence. The diffraction pattern is collected using a scanning position-sensitive detector (X'Celerator) located 240 mm from the specimen and Data Collector software v. 2.2b. Data acquisition parameters are: Panalytical X-Pert Pro MPD PW3040 Pro, X-ray Tube: Cu (1.54059 Å), Voltage: 45 kV, Amperage: 40 mA, Scan Range: 1.00-39.99° 2θ, Step Size: 0.017° 2θ, Collection Time: 719 s, Scan Speed: 3.3°/min., Slit: DS: ½°, SS: null, Revolution Time: 1.0 s, Mode: Transmission.

The nature of series [5]: Binary interconversion (competitive) slurry experiments between Crystalline Forms A, B and C. Format: physicochemical. Particulars: from interconversion slurries. The protocol:
Interconversion experiments are performed to test the hypothetical thermodynamic relationship between materials illustrated by the Energy—Temperature Diagram above. […] The choice of solvent affects the kinetics of polymorph conversion and not the thermodynamic relationship between polymorphic forms (Gu, C. H., Young, V. Jr., Grant, D. J., J. Pharm. Sci. 2001, 90 (11), 1878-1890).
Binary interconversion slurry experiments between Crystalline Forms A, B, and C in different solvent systems at temperatures spanning approximately 2 through 67° C. are summarized in Table 16 below. Saturated solutions are generated and then added to mixtures composed of approximately equivalent quantities of two of the polymorphs. The samples are slurried from overnight to three weeks and the solids harvested and analyzed by XRPD. The results of the interconversion studies indicate that the relative thermodynamic stability of the enantiotropes Crystalline Forms A, B, and C are correctly depicted by the proposed Energy—Temperature Diagram. In addition, Tt,C→B is expected below 2° C.

Series [6] in a line: Approximate solubility by solvent aliquot addition. Format: physicochemical. Particulars: in both methanol and water, room temperature. The protocol: Solution calorimetry (SolCal) analyses are also performed to determine the heats of solution in methanol at 25° C. and confirm the stable form at this temperature (see Example 15).
Experimental: Approximate Solubility
A weighed sample is treated with aliquots of the test solvent at room temperature. The mixture is sonicated between additions to facilitate dissolution. Complete dissolution of the test material is determined by visual inspection. Solubility is estimated based on the total solvent used to provide complete dissolution. The actual solubility may be greater than the value calculated because of the use of solvent aliquots that are too large or due to a slow rate of dissolution.

A short description of series [7]: Solution calorimetry (SolCal), heats of solution in methanol. Format: physicochemical. Particulars: 25° C. The protocol:
For each test, two heats of solution are obtained—one calculated using a calibration preceding the sample analysis and one calculated using a calibration following the sample analysis. Clear solutions are observed after each test.
Solution calorimetry is performed using a Thermometric 2225 Precision Solution calorimeter, a semi-adiabatic calorimeter. Solution calorimeter System v.1.2 software is used. Samples are weighed into glass crushing ampoules and are sealed using silicone rubber plugs and hot wax. Experiments are carried out in 100 mL of methanol at 25° C. The measurement of the heats of solution of the samples is both preceded and followed by calibrations using an internal heater. The heats of solution are calculated using dynamic of calibration model.

Series [8] can be described thus: Physical stability of mixture of Forms A and B on heat exposure. It is filed as physicochemical. Particulars: exposure to 230° C. The protocol: Tt,B→A is between 37 and 54° C. […] (Table 19 below).

Sequence of serotonin reuptake (5-HT) (P31645 whole entry): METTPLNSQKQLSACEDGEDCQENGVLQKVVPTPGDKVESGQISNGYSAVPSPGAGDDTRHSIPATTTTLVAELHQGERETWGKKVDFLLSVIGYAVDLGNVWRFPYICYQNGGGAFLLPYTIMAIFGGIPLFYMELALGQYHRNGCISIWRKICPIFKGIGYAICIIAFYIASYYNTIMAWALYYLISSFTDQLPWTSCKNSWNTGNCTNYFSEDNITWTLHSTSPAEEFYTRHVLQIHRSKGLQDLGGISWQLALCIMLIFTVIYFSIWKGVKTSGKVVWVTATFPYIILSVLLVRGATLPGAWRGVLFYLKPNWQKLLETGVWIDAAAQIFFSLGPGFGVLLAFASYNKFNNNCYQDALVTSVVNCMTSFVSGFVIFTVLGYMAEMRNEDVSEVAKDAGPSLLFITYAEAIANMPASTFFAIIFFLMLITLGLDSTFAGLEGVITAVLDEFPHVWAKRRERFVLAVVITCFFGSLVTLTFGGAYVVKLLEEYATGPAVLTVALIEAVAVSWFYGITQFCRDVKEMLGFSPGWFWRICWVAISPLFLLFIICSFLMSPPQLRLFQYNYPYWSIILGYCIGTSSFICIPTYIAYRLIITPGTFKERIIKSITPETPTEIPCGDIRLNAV
Sequence of norepinephrine reuptake (NE) (P23975 whole entry): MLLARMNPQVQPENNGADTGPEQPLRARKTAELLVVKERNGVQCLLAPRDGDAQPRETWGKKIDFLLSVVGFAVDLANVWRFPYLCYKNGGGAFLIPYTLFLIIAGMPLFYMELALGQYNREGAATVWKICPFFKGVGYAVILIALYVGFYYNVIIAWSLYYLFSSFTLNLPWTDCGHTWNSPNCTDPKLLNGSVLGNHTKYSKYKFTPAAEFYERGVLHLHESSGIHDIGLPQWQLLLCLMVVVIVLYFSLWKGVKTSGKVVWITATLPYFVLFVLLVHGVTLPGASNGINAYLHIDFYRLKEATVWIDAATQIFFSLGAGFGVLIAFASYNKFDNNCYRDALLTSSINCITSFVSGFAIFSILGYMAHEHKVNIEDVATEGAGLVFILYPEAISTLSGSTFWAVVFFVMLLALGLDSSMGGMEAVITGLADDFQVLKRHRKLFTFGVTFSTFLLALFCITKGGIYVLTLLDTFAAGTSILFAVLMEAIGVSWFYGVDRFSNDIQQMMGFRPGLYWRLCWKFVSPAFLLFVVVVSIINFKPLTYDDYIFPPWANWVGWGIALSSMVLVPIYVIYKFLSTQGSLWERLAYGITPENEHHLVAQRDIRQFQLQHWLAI
Sequence of dopamine reuptake (DA) (Q01959 whole entry): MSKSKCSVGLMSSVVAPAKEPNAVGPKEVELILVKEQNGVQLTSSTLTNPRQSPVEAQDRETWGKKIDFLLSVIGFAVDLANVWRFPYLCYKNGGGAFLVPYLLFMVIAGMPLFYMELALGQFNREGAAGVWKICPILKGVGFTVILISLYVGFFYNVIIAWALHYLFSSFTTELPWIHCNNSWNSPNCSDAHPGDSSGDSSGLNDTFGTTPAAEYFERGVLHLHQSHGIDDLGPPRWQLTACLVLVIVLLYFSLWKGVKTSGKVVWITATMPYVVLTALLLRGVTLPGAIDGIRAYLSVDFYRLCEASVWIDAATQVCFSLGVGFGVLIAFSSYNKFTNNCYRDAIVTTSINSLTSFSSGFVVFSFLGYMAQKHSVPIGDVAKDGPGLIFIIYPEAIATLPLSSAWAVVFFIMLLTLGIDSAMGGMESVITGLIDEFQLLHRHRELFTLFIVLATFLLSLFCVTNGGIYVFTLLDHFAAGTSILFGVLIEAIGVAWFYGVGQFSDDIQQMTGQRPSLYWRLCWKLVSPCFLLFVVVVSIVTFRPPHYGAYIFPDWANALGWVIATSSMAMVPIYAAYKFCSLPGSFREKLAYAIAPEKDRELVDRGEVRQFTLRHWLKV

Regarding `c1ccc2cc([C@]34CNC[C@H]3C4)ccc2c1` [(1R,5S)-1-(naphthalen-2-yl)-3-azabicyclo[3.1.0]hexane], the “potency towards serotonin reuptake (5-HT) relative to norepinephrine reuptake” value in [1] was “one-fourteenth as much”. For the same compound, the “potency towards norepinephrine reuptake (NE) among the three reuptakes” value in series [2] is listed as “most potent”. Besides, at dopamine reuptake (DA), the “potency towards dopamine reuptake (DA) relative to norepinephrine reuptake” value is given as “one-sixth as potent”.

Consider `Cl.c1ccc2cc([C@]34CNC[C@H]3C4)ccc2c1` [Crystalline Form C, (1R,5S)-1-(naphthalen-2-yl)-3-azabicyclo[3.1.0]hexane hydrochloride], for which the “solid form by XRPD after accelerated stress” value in series [3] (40° C./75% RH, hydrochloride) was “converts to a mixture of Crystalline Forms A and B”. Besides, the “solid form by XRPD after ambient storage” value in series [4] is “remains unchanged”. In series [5], the “transition temperature Tt,C→A” value was “between 2 °C and ambient temperature”.

In the case of `Cl.c1ccc2cc([C@]34CNC[C@H]3C4)ccc2c1` [Crystalline Form B, (1R,5S)-1-(naphthalen-2-yl)-3-azabicyclo[3.1.0]hexane hydrochloride], the “apparent solubility compared with Crystalline Form A” value in series [6] is listed as “lower apparent solubility”. Moreover, the “relative thermodynamic stability versus Crystalline Form A from heats of solution” value in series [7] is “more stable”. Moreover, the “enthalpy of the transition from Form B to Form A calculated from the SolCal data” value in series [7] (methanol) is reported as “about 15.9 J/g”. Further, the “average heat of solution” value is recorded as 64.567 J/g in series [7] (methanol, triplicate, endothermic, hydrochloride) and 64.567 J/g in [7] (methanol, average of three replicates, hydrochloride). In addition, the “ΔH2 (heat of solution)” value in series [7] (methanol, calculated using the calibration after breaking the sample vial, single replicates, hydrochloride) was 64.985 J/g and 65.057 J/g and 65.421 J/g. Further, the “ΔH1 (heat of solution)” value in series [7] (methanol, calculated using the calibration before breaking the sample vial, single replicates, hydrochloride) is 64.004 J/g and 63.471 J/g and 64.461 J/g. In series [7] (methanol, mean of the two calibrations, single replicates, hydrochloride), the “ΔHmean (heat of solution)” value was 64.495 J/g and 64.264 J/g and 64.941 J/g. Moreover, the “solid form by XRPD after accelerated stress” value is “remain unchanged” in series [3] (30° C./56% RH) and “remain unchanged” in series [3] (40° C./75% RH, hydrochloride).

`Cl.c1ccc2cc([C@]34CNC[C@H]3C4)ccc2c1` [mixture of Forms A and B, (1R,5S)-1-(naphthalen-2-yl)-3-azabicyclo[3.1.0]hexane hydrochloride]: the “solid form after heat exposure” value in series [8] is listed as “completely converts to Form A”.
